From patent US11691969B2, “Pyridazinones as PARP7 inhibtors” (Ribon Therapeutics, Inc., priority 2019, dated 2023)

Molecular target: PARP7 (Homo sapiens (Human), UniProt Q7Z3E1)
Test: TR-FRET assay: displacement of biotinylated Probe A from the TIPARP active site (Enzymatic Assay for Inhibition of PARP7)
Type: binding
Details: TIPARP 6 nM, Probe A 2 nM, 25° C.
Outline: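 6 nM His-tagged TIPARP and 2 nM biotinylated Probe A preincubated with compound 30 min at 25 °C in HEPES pH 8 buffer, then 4 nM ULight-anti-6×His and 0.25 nM Eu-streptavidin added for 30 min more. 665/615 nm ratio normalised to DMSO and 100 μM reference inhibitor controls; IC50 from 4-parameter fit.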

Chain of PARP7 (Q7Z3E1 whole entry): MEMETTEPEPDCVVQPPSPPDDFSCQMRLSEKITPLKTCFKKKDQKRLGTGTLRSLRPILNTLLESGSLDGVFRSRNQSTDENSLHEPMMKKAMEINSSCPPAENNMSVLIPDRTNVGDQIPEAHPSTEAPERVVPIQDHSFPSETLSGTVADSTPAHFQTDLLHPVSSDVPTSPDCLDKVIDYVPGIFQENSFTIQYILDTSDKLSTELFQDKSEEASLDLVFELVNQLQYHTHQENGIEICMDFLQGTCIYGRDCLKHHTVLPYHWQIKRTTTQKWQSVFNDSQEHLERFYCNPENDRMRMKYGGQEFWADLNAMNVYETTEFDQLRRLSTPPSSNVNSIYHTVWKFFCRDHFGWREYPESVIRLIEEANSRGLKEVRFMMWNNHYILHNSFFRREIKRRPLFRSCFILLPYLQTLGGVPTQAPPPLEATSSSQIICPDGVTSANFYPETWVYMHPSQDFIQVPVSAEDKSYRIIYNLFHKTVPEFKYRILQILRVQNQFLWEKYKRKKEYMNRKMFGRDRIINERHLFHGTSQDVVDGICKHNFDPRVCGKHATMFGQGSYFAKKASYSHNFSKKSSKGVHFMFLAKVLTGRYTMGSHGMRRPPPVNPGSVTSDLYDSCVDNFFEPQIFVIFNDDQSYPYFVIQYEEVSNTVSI

Row | IC50 [nM] | Compound
1 | < 100 | COC[C@@H](CO[C@@H]1CCN(C2CCN(c3ccc(C#N)cn3)CC2)C1=O)Oc1cn[nH]c(=O)c1C(F)(F)F [Example 50B, 6-(4-((R)-3-((S)-3-methoxy-2-((6-oxo-5-(trifluoromethyl)-1,6-dihydropyridazin-4-yl)oxy)propoxy)-2-oxopyrrolidin-1-yl)piperidin-1-yl)nicotinonitrile]
2 | 100 to 1000 | COC[C@@H](CO[C@H]1CCN(C2CCN(c3ncc(C(F)(F)F)cn3)CC2)C1=O)Oc1cn[nH]c(=O)c1C(F)(F)F [Example 51A, 5-(((S)-1-methoxy-3-(((S)-2-oxo-1-(1-(5-(trifluoromethyl)pyrimidin-2-yl)piperidin-4-yl)pyrrolidin-3-yl)oxy)propan-2-yl)oxy)-4-(trifluoromethyl)pyridazin-3(2H)-one]
3 | < 100 | COC[C@@H](CO[C@@H]1CCN(C2CCN(c3ncc(C(F)(F)F)cn3)CC2)C1=O)Oc1cn[nH]c(=O)c1C(F)(F)F [Example 51B, 5-(((S)-1-methoxy-3-(((R)-2-oxo-1-(1-(5-(trifluoromethyl)pyrimidin-2-yl)piperidin-4-yl)pyrrolidin-3-yl)oxy)propan-2-yl)oxy)-4-(trifluoromethyl)pyridazin-3(2H)-one]
4 | 100 to 1000 | COC[C@@H](CO[C@H]1CCN(C2CCN(c3ncc(C)cn3)CC2)C1=O)Oc1cn[nH]c(=O)c1C(F)(F)F [Example 52A, 5-(((S)-1-methoxy-3-(((S)-1-(1-(5-methylpyrimidin-2-yl)piperidin-4-yl)-2-oxopyrrolidin-3-yl)oxy)propan-2-yl)oxy)-4-(trifluoromethyl)pyridazin-3(2H)-one]
5 | < 100 | COC[C@@H](CO[C@@H]1CCN(C2CCN(c3ncc(C)cn3)CC2)C1=O)Oc1cn[nH]c(=O)c1C(F)(F)F [Example 52B, 5-(((S)-1-methoxy-3-(((R)-1-(1-(5-methylpyrimidin-2-yl)piperidin-4-yl)-2-oxopyrrolidin-3-yl)oxy)propan-2-yl)oxy)-4-(trifluoromethyl)pyridazin-3(2H)-one]
6 | ≥ 1000 | COC[C@@H](CO[C@H]1CCN(C2CCN(c3ccc(C#N)cn3)CC2)C1=O)Oc1cn[nH]c(=O)c1Br [Example 55A, 6-(4-((S)-3-((S)-2-((5-bromo-6-oxo-1,6-dihydropyridazin-4-yl)oxy)-3-methoxypropoxy)-2-oxopyrrolidin-1-yl)piperidin-1-yl)nicotinonitrile]
7 | < 100 | COC[C@@H](CO[C@@H]1CCN(C2CCN(c3ccc(C#N)cn3)CC2)C1=O)Oc1cn[nH]c(=O)c1Br [Example 55B, 6-(4-((R)-3-((S)-2-((5-bromo-6-oxo-1,6-dihydropyridazin-4-yl)oxy)-3-methoxypropoxy)-2-oxopyrrolidin-1-yl)piperidin-1-yl)nicotinonitrile]
8 | ≥ 1000 | COC[C@@H](CO[C@H]1CCN(C2CCN(c3ncc(C(F)(F)F)cn3)CC2)C1=O)Oc1cn[nH]c(=O)c1Br [Example 56A, 4-Bromo-5-(((S)-1-methoxy-3-(((S)-2-oxo-1-(1-(5-(trifluoromethyl)pyrimidin-2-yl)piperidin-4-yl)pyrrolidin-3-yl)oxy)propan-2-yl)oxy)pyridazin-3(2H)-one]
9 | < 100 | COC[C@@H](CO[C@@H]1CCN(C2CCN(c3ncc(C(F)(F)F)cn3)CC2)C1=O)Oc1cn[nH]c(=O)c1Br [Example 56B, 4-Bromo-5-(((S)-1-methoxy-3-(((R)-2-oxo-1-(1-(5-(trifluoromethyl)pyrimidin-2-yl)piperidin-4-yl)pyrrolidin-3-yl)oxy)propan-2-yl)oxy)pyridazin-3(2H)-one]
10 | < 100 | C[C@@H](CO[C@H]1CCN(C2CCN(c3ncc(C(F)(F)F)cn3)CC2O)C1=O)Oc1cn[nH]c(=O)c1C(F)(F)F (stereo partly drawn) [Example 64A, Syn-5-(((2S)-1-(((3S)-1-(3-hydroxy-1-(5-(trifluoromethyl)pyrimidin-2-yl)piperidin-4-yl)-2-oxopyrrolidin-3-yl)oxy)propan-2-yl)oxy)-4-(trifluoromethyl)pyridazin-3(2H)-one]
11 | < 100 | C[C@@H](CO[C@@H]1CCN(C2CCN(c3ncc(C(F)(F)F)cn3)CC2O)C1=O)Oc1cn[nH]c(=O)c1C(F)(F)F (stereo partly drawn) [Example 64B, Syn-5-(((2S)-1-(((3R)-1-(3-hydroxy-1-(5-(trifluoromethyl)pyrimidin-2-yl)piperidin-4-yl)-2-oxopyrrolidin-3-yl)oxy)propan-2-yl)oxy)-4-(trifluoromethyl)pyridazin-3(2H)-one]

The remaining lines, values behind:

Row | Compound | IC50 [nM]
12 | COC[C@@H](CO[C@@H]1CCN(C2CCN(c3ncc(C)cn3)CC2)C1=O)Nc1cn[nH]c(=O)c1C(F)(F)F [Example 53, 5-(((S)-1-methoxy-3-(((R)-1-(1-(5-methylpyrimidin-2-yl)piperidin-4-yl)-2-oxopyrrolidin-3-yl)oxy)propan-2-yl)amino)-4-(trifluoromethyl)pyridazin-3(2H)-one] | < 100
13 | COC[C@@H](CO[C@@H]1CCN(C2CCN(c3ncc(C#N)s3)CC2)C1=O)Nc1cn[nH]c(=O)c1C(F)(F)F [Example 54, 2-(4-((R)-3-((S)-3-methoxy-2-((6-oxo-5-(trifluoromethyl)-1,6-dihydropyridazin-4-yl)amino)propoxy)-2-oxopyrrolidin-1-yl)piperidin-1-yl)thiazole-5-carbonitrile] | < 100
14 | C[C@@H](CO[C@@H]1CCN([C@H]2CCN(c3ncc(C(F)(F)F)cn3)C[C@@H]2O)C1=O)Nc1cn[nH]c(=O)c1C(F)(F)F [Example 58, 5-(((S)-1-(((R)-1-((3S,4S)-3-hydroxy-1-(5-(trifluoromethyl)pyrimidin-2-yl)piperidin-4-yl)-2-oxopyrrolidin-3-yl)oxy)propan-2-yl)amino)-4-(trifluoromethyl)pyridazin-3(2H)-one] | < 100
15 | C[C@@H](CO[C@@H]1CCN([C@@H]2CCN(c3ncc(C(F)(F)F)cn3)C[C@@H]2O)C1=O)Nc1cn[nH]c(=O)c1C(F)(F)F [Example 59, 5-(((S)-1-(((R)-1-((3S,4R)-3-hydroxy-1-(5-(trifluoromethyl)pyrimidin-2-yl)piperidin-4-yl)-2-oxopyrrolidin-3-yl)oxy)propan-2-yl)amino)-4-(trifluoromethyl)pyridazin-3(2H)-one] | < 100
16 | C[C@@H](CO[C@@H]1CCN([C@H]2CCN(c3ncc(C(F)(F)F)cn3)C[C@H]2O)C1=O)Nc1cn[nH]c(=O)c1C(F)(F)F [Example 60, 5-(((S)-1-(((R)-1-((3R,4S)-3-hydroxy-1-(5-(trifluoromethyl)pyrimidin-2-yl)piperidin-4-yl)-2-oxopyrrolidin-3-yl)oxy)propan-2-yl)amino)-4-(trifluoromethyl)pyridazin-3(2H)-one] | < 100
17 | C[C@H](Nc1cn[nH]c(=O)c1C(F)(F)F)C(=O)N[C@@H]1CCN(C2CCN(c3ncc(C(F)(F)F)cn3)CC2)C1=O [Example 61, (S)—N—((R)-2-oxo-1-(1-(5-(trifluoromethyl)pyrimidin-2-yl)piperidin-4-yl)pyrrolidin-3-yl)-2-((6-oxo-5-(trifluoromethyl)-1,6-dihydropyridazin-4-yl)amino)propanamide] | < 100
18 | O=C1[C@H](OC[C@H](CNCC(F)(F)F)Nc2cn[nH]c(=O)c2C(F)(F)F)CCN1C1CCN(c2ncc(C(F)(F)F)cn2)CC1 [Example 62, 5-(((S)-1-(((R)-2-oxo-1-(1-(5-(trifluoromethyl)pyrimidin-2-yl)piperidin-4-yl)pyrrolidin-3-yl)oxy)-3-((2,2,2-trifluoroethyl)amino)propan-2-yl)amino)-4-(trifluoromethyl)pyridazin-3(2H)-one] | < 100
19 | O=C1[C@H](OC[C@H](CO)Nc2cn[nH]c(=O)c2C(F)(F)F)CCN1C1CCN(c2ncc(C(F)(F)F)cn2)CC1 [Example 63, 5-(((S)-1-hydroxy-3-(((R)-2-oxo-1-(1-(5-(trifluoromethyl)pyrimidin-2-yl)piperidin-4-yl)pyrrolidin-3-yl)oxy)propan-2-yl)amino)-4-(trifluoromethyl)pyridazin-3(2H)-one] | < 100
20 | C[C@@H](COC1CCN([C@@H]2CCN(c3ncc(C(F)(F)F)cn3)C[C@H]2O)C1=O)Oc1cn[nH]c(=O)c1C(F)(F)F (stereo partly drawn) [Example 65, 5-(((2S)-1-((1-((3R,4R)-3-hydroxy-1-(5-(trifluoromethyl)pyrimidin-2-yl)piperidin-4-yl)-2-oxopyrrolidin-3-yl)oxy)propan-2-yl)oxy)-4-(trifluoromethyl)pyridazin-3(2H)-one] | < 100
21 | CC(=O)NC[C@@H](CO[C@@H]1CCN(C2CCN(c3ncc(C(F)(F)F)cn3)CC2)C1=O)Nc1cn[nH]c(=O)c1C(F)(F)F [Example 66, N—((S)-3-(((R)-2-oxo-1-(1-(5-(trifluoromethyl)pyrimidin-2-yl)piperidin-4-yl)pyrrolidin-3-yl)oxy)-2-((6-oxo-5-(trifluoromethyl)-1,6-dihydropyridazin-4-yl)amino)propyl)acetamide] | < 100
22 | C[C@@H](O)[C@@H](CO[C@@H]1CCN(C2CCN(c3ncc(C(F)(F)F)cn3)CC2)C1=O)Nc1cn[nH]c(=O)c1C(F)(F)F [Example 67, 5-(((2R,3R)-3-hydroxy-1-(((R)-2-oxo-1-(1-(5-(trifluoromethyl)pyrimidin-2-yl)piperidin-4-yl)pyrrolidin-3-yl)oxy)butan-2-yl)amino)-4-(trifluoromethyl)pyridazin-3(2H)-one] | < 100
23 | C[C@@H](CO[C@@H]1CCN(C2CCN(c3ncc(C(F)(F)F)cn3)CC2C(N)=O)C1=O)Nc1cn[nH]c(=O)c1C(F)(F)F (stereo partly drawn) [Example 68, 4-((R)-2-oxo-3-((S)-2-((6-oxo-5-(trifluoromethyl)-1,6-dihydropyridazin-4-yl)amino)propoxy)pyrrolidin-1-yl)-1-(5-(trifluoromethyl)pyrimidin-2-yl)piperidine-3-carboxamide] | < 100
24 | C[C@@H](CO[C@@H]1CCN(C2CCN(c3ncc(C(F)(F)F)cn3)CC2C#N)C1=O)Nc1cn[nH]c(=O)c1C(F)(F)F (stereo partly drawn) [Example 69, 4-((R)-2-oxo-3-((S)-2-((6-oxo-5-(trifluoromethyl)-1,6-dihydropyridazin-4-yl)amino)propoxy)pyrrolidin-1-yl)-1-(5-(trifluoromethyl)pyrimidin-2-yl)piperidine-3-carbonitrile] | < 100
